Measurements as given in PubChem BioAssay (NCI).
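Cells were grown in 96-well plates and exposed to each compound for 48 hours at five concentrations; endpoints were interpolated linearly between bracketing concentrations, or set to the highest concentration if not reached. The concentration for 50% growth inhibition is given as GI50. TGI is the concentration that stops growth completely.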

Key:
Experiment in all cases: DTP human tumour cell line panel, 48 h
[1] = test system: 786-0 renal
[2] = test system: A498 renal
[3] = test system: A549 NSCLC
[4] = test system: ACHN renal
[5] = test system: BT-549 breast
[6] = test system: CAKI-1 renal
[7] = test system: CCRF-CEM leukemia
[8] = test system: COLO 205 colon
[9] = test system: DU-145 prostate
[10] = test system: EKVX NSCLC
[11] = test system: HCC-2998 colon
[12] = test system: HCT-116 colon
[13] = test system: HCT-15 colon
[14] = test system: HL-60(TB) leukemia
[15] = test system: HOP-62 NSCLC
[16] = test system: HOP-92 NSCLC
[17] = test system: HS 578T breast
[18] = test system: HT29 colon
[19] = test system: IGROV1 ovarian
[20] = test system: K-562 leukemia
[21] = test system: KM12 colon
[22] = test system: LOX IMVI melanoma
[23] = test system: M14 melanoma
[24] = test system: MALME-3M melanoma
[25] = test system: MCF7 breast
[26] = test system: MDA-MB-231 breast
[27] = test system: MDA-MB-435
[28] = test system: MDA-MB-468 breast
[29] = test system: MOLT-4 leukemia
[30] = test system: NCI-H226 lung
[31] = test system: NCI-H23 lung
[32] = test system: NCI-H460 lung
[33] = test system: NCI-H522 lung
[34] = test system: NCI/ADR-RES ovarian
[35] = test system: OVCAR-3 ovarian
[36] = test system: OVCAR-4 ovarian
[37] = test system: OVCAR-5 ovarian
[38] = test system: OVCAR-8 ovarian
[39] = test system: PC-3 prostate
[40] = test system: RPMI-8226 leukemia
[41] = test system: RXF 393 renal
[42] = test system: SF-268 CNS
[43] = test system: SF-295 CNS
[44] = test system: SF-539 CNS
[45] = test system: SK-MEL-2 melanoma
[46] = test system: SK-MEL-28 melanoma
[47] = test system: SK-MEL-5 melanoma
[48] = test system: SK-OV-3 ovarian
[49] = test system: SN12C renal
[50] = test system: SNB-19 CNS
[51] = test system: SNB-75 CNS
[52] = test system: SR leukemia
[53] = test system: SW-620 colon
[54] = test system: T-47D breast
[55] = test system: TK-10 renal
[56] = test system: U251 CNS
[57] = test system: UACC-257 melanoma
[58] = test system: UACC-62 melanoma
[59] = test system: UO-31 renal

## COc1cc2c(c(OC)c1OC)C(=O)CC(c1cccc(NC(=O)c3cccc([N+](=O)[O-])c3)c1)O2 (stereo not drawn)
[1]
  GI50: 47.9 µM
  TGI: > 100 µM
[2]
  GI50: 67.4 µM
  TGI: > 100 µM
[3]
  GI50: 21.7 µM
  TGI: > 100 µM
[4]
  GI50: 21.5 µM
  TGI: > 100 µM
[5]
  GI50: 5 µM
  TGI: 57.7 µM
[6]
  GI50: 6.66 µM
  TGI: > 100 µM
[7]
  GI50: 3.44 µM
  TGI: > 100 µM
[8]
  GI50: 28 µM
  TGI: > 100 µM
[9]
  GI50: 21.5 µM
  TGI: > 100 µM
[10]
  GI50: > 100 µM
  TGI: > 100 µM
[11]
  GI50: 55.1 µM
  TGI: > 100 µM
[12]
  GI50: 9.24 µM
  TGI: > 100 µM
[13]
  GI50: 6.57 µM
  TGI: > 100 µM
[14]
  GI50: 3.84 µM
  TGI: 29.1 µM
[15]
  GI50: 98.7 µM
  TGI: > 100 µM
[16]
  GI50: 4.29 µM
  TGI: > 100 µM
[17]
  GI50: 7.29 µM
  TGI: > 100 µM
[18]
  GI50: 26.8 µM
  TGI: > 100 µM
[19]
  GI50: 18.6 µM
  TGI: > 100 µM
[20]
  GI50: 6.03 µM
  TGI: > 100 µM
[21]
  GI50: 3.39 µM
  TGI: > 100 µM
[22]
  GI50: 13.9 µM
  TGI: > 100 µM
[23]
  GI50: 19.2 µM
  TGI: > 100 µM
[24]
  GI50: 10.1 µM
  TGI: > 100 µM
[25]
  GI50: 6.99 µM
  TGI: > 100 µM
[26]
  GI50: 18.8 µM
  TGI: > 100 µM
[27]
  GI50: 4.3 µM
  TGI: 21.5 µM
[28]
  GI50: 2.07 µM
  TGI: 8.94 µM
[29]
  GI50: 3.93 µM
  TGI: > 100 µM
[30]
  GI50: 5.77 µM
  TGI: > 100 µM
[31]
  GI50: 32.8 µM
  TGI: > 100 µM
[32]
  GI50: 17.2 µM
  TGI: > 100 µM
[33]
  GI50: 4.65 µM
  TGI: 49.8 µM
[34]
  GI50: 4.88 µM
  TGI: > 100 µM
[35]
  GI50: 9.49 µM
  TGI: > 100 µM
[36]
  GI50: 7.98 µM
  TGI: > 100 µM
[37]
  GI50: 74.6 µM
  TGI: > 100 µM
[38]
  GI50: 4.62 µM
  TGI: > 100 µM
[39]
  GI50: 4.66 µM
  TGI: > 100 µM
[40]
  GI50: 3.24 µM
  TGI: 48.6 µM
[41]
  GI50: 3.62 µM
  TGI: > 100 µM
[42]
  GI50: 18.5 µM
  TGI: > 100 µM
[43]
  GI50: 18.7 µM
  TGI: > 100 µM
[44]
  GI50: 29.3 µM
  TGI: > 100 µM
[45]
  GI50: 7.49 µM
  TGI: 48.8 µM
[46]
  GI50: 35.2 µM
  TGI: > 100 µM
[47]
  GI50: 6.3 µM
  TGI: 46.7 µM
[48]
  GI50: > 100 µM
  TGI: > 100 µM
[49]
  GI50: 11.2 µM
  TGI: > 100 µM
[50]
  GI50: 36.9 µM
  TGI: > 100 µM
[51]
  GI50: 7.73 µM
  TGI: > 100 µM
[52]
  GI50: 3.15 µM
  TGI: > 100 µM
[53]
  GI50: 10.9 µM
  TGI: > 100 µM
[54]
  GI50: 3.74 µM
  TGI: > 100 µM
[55]
  GI50: 51.6 µM
  TGI: > 100 µM
[56]
  GI50: 20.1 µM
  TGI: > 100 µM
[57]
  GI50: 19.5 µM
  TGI: > 100 µM
[58]
  GI50: 4.07 µM
  TGI: 65.4 µM
[59]
  GI50: 4.79 µM
  TGI: > 100 µM
